Experimental data from publication PMC12440207 (PLOS Pathogens, 2025).
“Also recorded” adds a separate entry of the source.

Columns and labels:
[1] = system: water injected oocytes (endogenous channels of Xenopus laevis); assay: Electrophysiology of water injected oocytes (control); format: cell-based
Protocol: (§1) TEVC was conducted at room temperature by impaling oocytes with two microelectrodes; a current injecting electrode, Im, used to inject the required current for holding the membrane at a set voltage, and a voltage sensing electrode, Vm. The microelectrodes were pulled using a Flaming/Brown horizontal electrode puller (Model P-97; Sutter Instruments, Novato, CA, USA) and filled with 3 M KCl. Each electrode tip was broken with a piece of Kimwipe paper (Kimtech Science, Fisher) to achieve a resistance of 2 – 5 MΏ in recording solution (88 mM NaCl, 2.5 mM KCl, 1 mM MgCl2.6H2O, 1.8 mM CaCl2.2H2O and 5 mM HEPES, at pH 7.4). […] Amplified signals were converted from analog to digital format by a Digidata 1322A digitizer (Molecular Devices, CA, USA) and all data were acquired on a desktop computer with the Clampex 10.3 data acquisition software (Molecular Devices, Sunnyvale, CA, USA).
(§2) Briefly, oocytes expressing either Bma-SLO-1F or Ovo-SLO-1A channels were impaled and subjected to a current-voltage protocol that consisted of 500 ms voltage steps from -120 to + 60 mV in 20 mV increments, starting from a holding position of -70 mV for 1 s between each step. Plateau currents were recorded at a frequency of 5000 Hz during clamping and perfused with recording solution: (88 mM NaCl, 2.5 mM, KCl, 1 mM MgCl2.6H2O, 1.8 mM CaCl2.2H2O and 5 mM HEPES, at pH 7.4). The results of the voltage steps were evaluated and analyzed using the ClampFit 10.3 software (Molecular Devices), whereas current-voltage curves (IVCs) were prepared using Graphpad Prism 10.1.1(GraphPad Software, Inc., USA).
(§3) To obtain current-voltage curves (IVCs) from our voltage steps experiments, plateau currents elicited at each step potential (-120 to + 60 mV) were acquired for individual oocytes in Clampfit 10.3 (Molecular Devices, Sunnyvale, CA, USA). […] Subsequently, statistical differences for slope values among treatment groups were analyzed using ANOVA, followed by the Tukey multiple comparison post-hoc test. Results were expressed as mean ± S.E.M.

Bma-SLO-1F [2] = molecular target: T1, Bma-SLO-1F (Brugia malayi, UniProt A0A0J9Y9H3); assay: Two-electrode voltage clamp of Xenopus oocytes expressing Bma-SLO-1F; format: cell-based
Protocol: (§4) Defolliculated Xenopus laevis oocytes were purchased from Ecocyte Bioscience (Austin, TX, USA) and Xenopus 1 Corp (Dexter, MI, USA). Heterologous expression of the Bma-SLO-1F receptor was achieved by injecting 15 ng of cRNA in a total volume of 50 nL in nuclease-free water. Each oocyte was microinjected into the cytoplasm of the animal pole region using a Drummond Nanoject II microinjector (Drummond Scientific, Broomall, PA, USA). After injection, oocytes were incubated at 17°C in a sterile 96-well culture plate containing 300 μl of incubation solution (100 mM NaCl, 2 mM KCl, 1.8 mM CaCl2.2H2O, 1 mM MgCl2.6H2O, 5 mM HEPES, 2.5 mM Na pyruvate, 100 U/mL penicillin and 100 μg/mL streptomycin, pH 7.5) in each well. Incubation solution was changed daily during the period of incubation. The same procedure was also conducted for the Ovo-SLO-1A receptor. Experiments were performed on oocytes within 5 – 6 days post injection.
as §1
(§5) For our recordings, the times for drug applications were selected to allow the currents recorded to reach a stable plateau. At the beginning of experiments the Xenopus oocytes were perfused with drug free recording solution for 1 min, to obtain stable initial resting currents. […] Washing of the Xenopus oocytes then followed for 3 mins.
(§6) GraphPad Prism 10.1.1 software (GraphPad Software Inc., USA) was used to generate Concentration-response curves using the log agonist vs. response equation (variable slope) to estimate EC50, Rmax and Hillslope (nH) values for both Bma-SLO-1F and Ovo-SLO-1A channels. We also used the unpaired two-tailed Student’s t-test to test for statistical significance. A p value < 0.05 was deemed significant. The analyzed results were expressed as mean ± S.E.M.
(§7) The results were expressed as the mean ± S.E.M.
(§8) Results were expressed as the mean ± S.E.M.

mammalian BK channel = system: mammalian BK channel; parameters: method as in PMID 24561672; settings: mammalian BK channel activator; cited from earlier work
Ovo-SLO-1A [3] = molecular target: T2, Ovo-SLO-1A (Onchocerca volvulus, UniProt A0A2K6W0E9); assay: Two-electrode voltage clamp of Xenopus oocytes expressing Ovo-SLO-1A; format: cell-based
Protocol: as §4, §1, §5, §6, §7, §8

Bma-SLO-1F [4] = molecular target: T1, Bma-SLO-1F; assay: Voltage step electrophysiology (current-voltage relationship), Bma-SLO-1F oocytes; format: cell-based
Protocol: as §2
as §3, with “USA). Mean currents for all replicate oocytes were plotted against their corresponding voltage step potentials to obtain IVCs using Graphpad Prism 10.1.1 software (GraphPad Software, Inc., USA).” for “USA).”

Ovo-SLO-1A [5] = molecular target: T2, Ovo-SLO-1A; assay: Voltage step electrophysiology (current-voltage relationship), Ovo-SLO-1A oocytes; format: cell-based; settings: 1 µM emodepside
Protocol: as §2
as §3, with “USA). Mean currents for all replicate oocytes were plotted against their corresponding voltage step potentials to obtain IVCs using Graphpad Prism 10.1.1 software (GraphPad Software, Inc., USA).” for “USA).”

[6] = 3 µM GoSlo-SR-5-69 + 0.3 µM emodepside, Ca2+ replaced with equimolar Co2+
[7] = 3 µM GoSlo-SR-5-69 alone, +20 mV
[8] = 3 µM GoSlo-SR-5-69 on 0.3 µM emodepside response
[9] = 0.3 µM emodepside + 3 µM GoSlo-SR-5-69 co-applied, n = 6
[10] = absence of GoSlo-SR-5-69, modulation experiment, n = 6
[11] = emodepside alone, +20 mV, n = 10
[12] = emodepside concentration-response, n = 10
[13] = in the presence of 3 µM GoSlo-SR-5-69, n = 6

T2 sequence (A0A2K6W0E9 entry or part of it): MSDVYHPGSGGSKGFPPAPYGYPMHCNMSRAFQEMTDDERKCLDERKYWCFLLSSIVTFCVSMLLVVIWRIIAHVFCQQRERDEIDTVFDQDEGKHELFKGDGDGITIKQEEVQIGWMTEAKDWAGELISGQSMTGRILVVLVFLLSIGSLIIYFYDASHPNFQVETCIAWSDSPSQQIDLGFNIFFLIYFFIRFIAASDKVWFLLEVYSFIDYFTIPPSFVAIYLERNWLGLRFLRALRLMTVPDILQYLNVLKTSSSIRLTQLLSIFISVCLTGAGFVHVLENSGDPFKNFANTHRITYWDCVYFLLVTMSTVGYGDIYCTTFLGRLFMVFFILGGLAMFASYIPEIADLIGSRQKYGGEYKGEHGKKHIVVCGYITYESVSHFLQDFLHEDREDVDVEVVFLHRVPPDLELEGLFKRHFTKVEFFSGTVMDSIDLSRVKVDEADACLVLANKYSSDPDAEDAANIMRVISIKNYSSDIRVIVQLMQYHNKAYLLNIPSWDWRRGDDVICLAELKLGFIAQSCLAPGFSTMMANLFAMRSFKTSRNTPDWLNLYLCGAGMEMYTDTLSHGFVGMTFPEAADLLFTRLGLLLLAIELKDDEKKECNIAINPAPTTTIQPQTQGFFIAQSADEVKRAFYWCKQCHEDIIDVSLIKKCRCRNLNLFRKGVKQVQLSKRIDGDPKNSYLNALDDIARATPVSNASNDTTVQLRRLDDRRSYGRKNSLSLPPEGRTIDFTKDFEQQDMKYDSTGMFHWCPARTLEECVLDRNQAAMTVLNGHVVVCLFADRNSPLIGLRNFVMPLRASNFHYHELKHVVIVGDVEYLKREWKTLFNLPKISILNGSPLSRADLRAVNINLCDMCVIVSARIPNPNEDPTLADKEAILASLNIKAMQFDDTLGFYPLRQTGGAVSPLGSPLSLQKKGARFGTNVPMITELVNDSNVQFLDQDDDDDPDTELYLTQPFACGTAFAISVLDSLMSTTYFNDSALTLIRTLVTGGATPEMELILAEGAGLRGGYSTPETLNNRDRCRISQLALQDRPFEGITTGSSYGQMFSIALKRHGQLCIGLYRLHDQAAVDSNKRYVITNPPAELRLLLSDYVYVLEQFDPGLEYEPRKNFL
T1 sequence (A0A0J9Y9H3 entry or part of it): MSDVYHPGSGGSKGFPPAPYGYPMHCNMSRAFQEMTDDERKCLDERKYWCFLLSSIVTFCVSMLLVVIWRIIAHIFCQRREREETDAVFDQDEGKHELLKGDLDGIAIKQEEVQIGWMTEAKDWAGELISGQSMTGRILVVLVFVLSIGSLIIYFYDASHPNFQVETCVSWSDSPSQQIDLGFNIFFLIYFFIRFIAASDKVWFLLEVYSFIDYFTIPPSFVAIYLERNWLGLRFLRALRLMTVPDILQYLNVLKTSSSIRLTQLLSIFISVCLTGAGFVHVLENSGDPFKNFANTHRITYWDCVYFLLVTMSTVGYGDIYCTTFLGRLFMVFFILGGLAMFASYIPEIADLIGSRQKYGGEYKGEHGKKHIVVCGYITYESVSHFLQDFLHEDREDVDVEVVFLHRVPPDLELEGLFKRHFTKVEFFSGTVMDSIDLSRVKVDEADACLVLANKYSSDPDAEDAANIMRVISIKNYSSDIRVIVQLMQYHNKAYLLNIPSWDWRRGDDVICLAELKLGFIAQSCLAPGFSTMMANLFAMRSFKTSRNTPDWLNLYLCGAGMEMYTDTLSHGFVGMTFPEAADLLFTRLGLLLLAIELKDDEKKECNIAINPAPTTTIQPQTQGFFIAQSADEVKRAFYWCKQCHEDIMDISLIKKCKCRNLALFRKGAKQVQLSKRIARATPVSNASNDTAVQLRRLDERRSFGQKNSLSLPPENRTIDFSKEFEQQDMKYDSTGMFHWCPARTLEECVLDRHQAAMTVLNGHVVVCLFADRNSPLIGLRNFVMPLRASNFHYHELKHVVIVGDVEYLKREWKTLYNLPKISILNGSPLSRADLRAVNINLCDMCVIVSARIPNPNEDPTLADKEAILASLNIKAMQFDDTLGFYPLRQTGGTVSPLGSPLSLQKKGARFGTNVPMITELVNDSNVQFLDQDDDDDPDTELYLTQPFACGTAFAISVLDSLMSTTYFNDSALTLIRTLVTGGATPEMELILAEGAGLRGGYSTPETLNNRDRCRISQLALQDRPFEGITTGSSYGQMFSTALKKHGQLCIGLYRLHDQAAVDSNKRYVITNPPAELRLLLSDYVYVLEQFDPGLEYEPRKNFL

Nc1c(S(=O)(=O)O)cc(Nc2ccc3c(c2)CCCC3)c2c1C(=O)c1ccccc1C2=O [GoSlo-SR-5–69]
current produced in water injected oocytes ([1]; 3 µM GoSlo-SR-5-69, +20 mV, also seen in SLO-1 expressing oocytes): slowly inactivating inward current
increase in emodepside Rmax (Bma-SLO-1F [2]; 3 µM GoSlo-SR-5-69): 1.7 fold
increase in sensitivity to emodepside (EC50 shift) (Bma-SLO-1F [2]; 3 µM GoSlo-SR-5-69): 7 fold
potentiation of emodepside responses in the absence of extracellular Ca2+ (Bma-SLO-1F [2]; [6]): still potentiated
agonist activity (channel activation) alone (Bma-SLO-1F [2]; [7]): lacks agonist activity; also recorded: does not by itself activate
percentage increase in peak currents of the emodepside response (Bma-SLO-1F [2]; [8]): 200%
EC50 (mammalian BK channel): 251 nM
change in emodepside Rmax (Ovo-SLO-1A [3]; 3 µM GoSlo-SR-5-69): significantly increased
shift in emodepside EC50 (Ovo-SLO-1A [3]; 3 µM GoSlo-SR-5-69): did not cause a significant shift; also recorded: remained unchanged
potentiation of emodepside responses in the absence of extracellular Ca2+ (Ovo-SLO-1A [3]; [6]): still potentiated
agonist activity (channel activation) alone (Ovo-SLO-1A [3]; [7]): lacks agonist activity; also recorded: does not by itself activate
percentage increase in peak currents of the emodepside response (Ovo-SLO-1A [3]; [8]): 65.2%

emodepside
response of water injected oocytes ([1]; 0.3 µM emodepside, +20 mV): no response
effect on current and conductance of water injected oocytes ([1]; 1 µM emodepside, voltage steps): little or no agonist effects; also recorded: no detectable change
current (Imax) response (Bma-SLO-1F [2]; [9]): 2799 ± 100 nA
current (Imax) response (Bma-SLO-1F [2]; 0.3 µM emodepside alone, n = 6): 954 ± 355 nA
Rmax of emodepside (Bma-SLO-1F [2]; [10]): 2679 ± 318 nA
maximum response (Rmax) (Bma-SLO-1F [2]; [11]): 6446 ± 287 nA
Hillslope (Bma-SLO-1F [2]; [12]): 1.1 ± 0.1
Rmax of emodepside (Bma-SLO-1F [2]; [13]): 4493 ± 433 nA
current response (Ovo-SLO-1A [3]; [9]): 6735 ± 272 nA
current response (Ovo-SLO-1A [3]; 0.3 µM emodepside alone, n = 6): 4170 ± 355 nA
sensitivity of Ovo-SLO-1A to emodepside relative to Bma-SLO-1F (EC50 ratio) (Ovo-SLO-1A [3]; Ovo-SLO-1A vs Bma-SLO-1F): 3.5 times
Rmax of emodepside (Ovo-SLO-1A [3]; [10]): 2454 ± 87 nA
maximum response (Rmax) (Ovo-SLO-1A [3]; [11]): 10762 ± 478 nA
Hillslope (Ovo-SLO-1A [3]; [12]): 1.2 ± 0.1
Rmax of emodepside (Ovo-SLO-1A [3]; [13]): 4928 ± 830 nA
slope conductance (Bma-SLO-1F [4]; 1 µM emodepside, voltage steps -120 to +60 mV, n = 6 (basal 2.4 ± 0.3 µS)): 12 ± 1.0 µS
reversal potential (Bma-SLO-1F [4]; all current voltage plots, with and without 1 µM emodepside): ~-72 mV
reversal potential (Ovo-SLO-1A [5]; no change from basal): -71 mV
slope conductance (Ovo-SLO-1A [5]; voltage steps -120 to +60 mV, n = 6 (basal 26 ± 2.9 µS)): 61 ± 4.4 µS
